Experimental data reported in patent publication US20210024483A1, “HETEROCYLCOALKENYL DERIVATIVES USEFUL AS AGONISTS OF THE GPR120 AND / OR GPR40” (Janssen Pharmaceutica NV, priority 2018, published 2021).

Legend:
[1] = target: T1, Human GPR120 short form (short splice variant, NM_001195755.1) (Homo sapiens, UniProt Q5NUL3); test: Human GPR120 Calcium Flux Assay; assay type: cell-based; details: HEK-293 cells, 4200 cells/well, read-out: Human GPR120 Calcium Flux Assay Procedure B EC50
T1 construct: expressed in transfected cells; host or cells: HEK293
T1 sequence (Q5NUL3 1-361): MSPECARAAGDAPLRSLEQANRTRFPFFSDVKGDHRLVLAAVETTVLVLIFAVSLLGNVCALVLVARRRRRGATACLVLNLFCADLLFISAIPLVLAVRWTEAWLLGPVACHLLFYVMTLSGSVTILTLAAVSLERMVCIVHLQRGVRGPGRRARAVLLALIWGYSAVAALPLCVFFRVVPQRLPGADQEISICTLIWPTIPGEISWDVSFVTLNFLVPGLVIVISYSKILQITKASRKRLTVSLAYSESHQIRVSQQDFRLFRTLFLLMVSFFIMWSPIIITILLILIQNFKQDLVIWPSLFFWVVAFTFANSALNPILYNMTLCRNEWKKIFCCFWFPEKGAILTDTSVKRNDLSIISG
Excerpt: In Vitro Assay: Human GPR120 in Calcium Flux Assay
This in vitro assay serves to assess test compound agonist activity against the short splice variant (SVS with Accession number NM_001195755.1 confirmed by sequencing data) of the GPR120 receptor. The Human Short splice variant #2 (NM_001195755.1) is missing an in-frame coding exon compared to variant 1 (the Human Long splice variant NM_181745.3), resulting in a shorter isoform (GPR120-S) lacking a 16 aa protein segment compared to isoform GPR120-L. The assay platform utilizes HEK-293 cells stably transfected to express the Human GPR120 short form. These cells are first loaded with the Ca^+2 sensitive dye, Fluo-4 NW. Upon stimulation, intracellular released Ca^+2 can bind to the dye and alter its fluorescence intensity. This increase in fluorescence signal, and thus the flux in intracellular [Ca^2+], is detected and quantitated by fluorescence imaging using a FLIPR reader. The effect of the agonist is measured as a function of concentration and used to calculate an EC50 based upon a response curve. […]
In this procedure 4200 cells/well were employed.
A Human GPR120 clone (Genbank accession number NM_001195755.1) was placed into the pcDNA3.1 mammalian expression vector carrying the neomycin resistance gene. A stable mammalian cell was generated by placing the above clone into a HEK293 background. Clonal cells responding to long chain fatty acids had expression levels of GPR120 confirmed by RT-qPCR. Human HEK-GPR120 cells were cultured in Dulbecco's Modified Eagle's Medium (DMEM)/F12 medium supplemented with 10% fetal bovine serum (FBS), 1% L-Glutamine and 1% penicillin/streptomycin and 0.5 mg/ml G-418. Cells were split 2 times a week to keep the cells in the log-phase growth.
In preparation for the assay, HEK cells stably transfected with Human GPR120 (2.5K cells per well in 25 uL growth medium) were seeded into 384-well plates and then incubated overnight (37° C., 5% CO2). The next day, the media was changed to 20 μL assay buffer and the cell starved for 1 h at 37° C. The dye loading solution (2× dye) was prepared using 10 mL assay buffer, 100 μL of 250 mM probenecid, 1 bottle of Component A, and 20 μl of dye in DMSO. Twenty μL of the 2× dye loading buffer was then added to each well. The plates were incubated at 37° C. for 30 min, then at room temperature for an additional 15 minutes, before performing the assay on FLIPR.
The assay was performed on a FLIPR plate reader using the following parameters. Baseline was read for 10 seconds at 1 sec intervals. The program was set to transfer 10 μL of ligand from compound plate to cell plate after baseline reading. Aspiration was executed at: 10 μL/sec speed, 4.6 μL height; Dispensing was executed at: 30 μL/sec speed, 45 μL height. After compound addition, each well was read for 300 sec, with measurements collected at 1 sec intervals.
The kinetic data from the FLIPR was based upon a 5 minute window for data collection. The fluorescence of each sample well was used for individual calculations of a normalized RFU value, which was defined as maximum response minus the minimum response. The normalized fluorescence reading (RFU) was calculated as follows:
(§1) The data were fitted to a sigmoidal dose-response curve with a variable Hill slope (<2) using nonlinear regression with GraphPad Prism 5.0 to calculate the EC50 values. The Fitting Equation was: Y=Bottom+(Top−Bottom)/(1+10^((Log EC50−X)*HillSlope)), where X is the log of the concentration and Y is the response.

[2] = target: T2, short form of the GPR120 receptor (Homo sapiens, UniProt Q5NUL3); test: Human GPR120 DiscoveRx PathHunter Beta-Arrestin Assay, Procedure B; assay type: cell-based; details: PathHunter CHO-K1 GPR120S cells, 5000 cells/well
T2 construct: host or cells: PathHunter CHO-K1 GPR120S beta-Arrestin Cell Line
T2 sequence (Q5NUL3 1-361): T1 sequence (Q5NUL3 1-361)
Excerpt: Human GPR120 DiscoveRx PathHunter® Beta-Arrestin Assay
The binding of an agonist (medium/long chain fatty acids or small molecule agonists) to the G-protein-coupled receptor GPR120 activates phospholipase C, leading to release of intracellular Ca^+2 through the generation of inositol 1,4,5-trisphosphate (InsP3 or IP3). GPR120 activation can also trigger intracellular signaling via recruitment of Beta-Arrestin. In the present method, agonist-induced activation of the human GPR120 receptor is monitored through the use of PathHunter® CHO-K1 GPR120 Beta-Arrestin Cell Line engineered by DiscoveRx, as detailed below. The cell lines were designed to co-express both the ProLink/Enzyme Donor (PK)-tagged GPCR and the Enzyme […] (EA)-tagged Beta-Arrestin fusion proteins. Upon GPR120 receptor stimulation/activation, the EA-tagged Beta-Arrestin portion is translocated to the tagged receptor, where the two enzyme fragments are brought within close proximity. Under these conditions, these fragments can interact and form an active Beta-gal enzyme complex through Enzyme Fragment Complementation (EFC). This active Beta-gal complex can enzymatically hydrolyse the substrate to produce a detectable light signal; therefore, activation as a function of agonist concentration can be expressed as an EC50 value to determine relative compound activities. This in vitro assay therefore serves to assess compound agonist activity of the GPR120.
In Procedure β-arrestin B the cells used were PathHunter® CHO-K1 GPR120S β-Arrestin Cell Line, expressing the short form of the GPR120 receptor (Accession #[…]), with 5000 cells/well.
The selected CHO-K1 GPR120 β-Arrestin cells were cultured in Ham's F12 media supplemented with 10% fetal bovine serum (FBS), 1% Glutamine, 1× p/s, 800 μg/mL G418 and 300 μg/mL Hygromycin B (for selection). Cell stocks were maintained and grown in a sub-confluent state using standard cell culture procedures. The day before the experiment, the cells were harvested with non-enzymatic cell dissociation buffer and re-suspended in complete growth media at the desired concentration. A Corning 384-plate was then seeded with the proper number of cells in a volume of 25 μL, per well. The seeded plates were incubated overnight at 37° C.
On the day of the experiment, the Assay Buffer containing (a) HBSS with Ca^++ and Mg^++, (b) 20 mM HEPES, and (c) 0.1% BSA stabilizer (pH 7.4) was prepared. The growth medium was gently removed from the cell plates and 20 μL of Assay Buffer added to each well. The plate was then incubated at 37° C. for 60 min. Test compounds were serially diluted in Assay Buffer to desired concentrations (more particularly to one or more of the following μM concentrations: 25, 12.5, 6.25, 3.12, 1.56, 0.78, 0.39, 0.19, 0.10, 0.05, 0.02, 0.01). Five μL of compound dilution was then added to each well and the plate incubated at 37° C. for 90 min. The detection reagents were prepared according to the manufacture's instruction. Twelve μL of the detection reagents were added to each well and the plate incubated at room temperature for 60 min.
The plates were read on an EnVision instrument, using Protocol name: Luminescence, Plate type: 384 Costar, Measurement height: 3 mm, Measurement time: 1 s, Aperture: 384 Plate aperture. The % Activity relative to the positive control was calculated using the following equation:
as §1, with “% Activity values” for “data”, “were plotted versus the concentration of test compound and” for “were”, “a” for “a variable”, “slope=1 (fixed value)” for “slope (<2)”

SMILES | EC50 [1] | EC50 [2]
Cc1c(CCC(=O)O)ccc(OCC2=C(c3ccc(F)cc3)CCOC2)c1C [compound 650] | 0.316 µM | 0.658 µM
COc1ccc(C2=C(COc3ccc(CCC(=O)O)c(C)c3C)COCC2)cc1 [compound 647] | > 5 µM | 0.74 µM
O=C(O)CCc1cc(F)c(OCC2=C(c3ccc(Cl)cc3)CCOC2)c(F)c1 [compound 642] | 0.176 µM | 0.623 µM
Cc1cc(CCC(=O)O)ccc1OCC1=C(c2ccc(Cl)cc2)COCC1 [compound 753] | 0.178 µM | 0.296 µM
Cc1cc(CCC(=O)O)ccc1OCC1=C(c2ccc(Cl)cc2)CCOC1 [compound 645] | 0.269 µM | 0.275 µM
O=C(O)CCc1ccc(OCC2=C(c3ccc(Cl)cc3)CCOC2)cc1C(F)(F)F [compound 646] | 0.628 µM | 3.65 µM

The remaining lines, values ahead:

EC50 [1] | EC50 [2] | SMILES
0.172 µM | 0.204 µM | Cc1c(CCC(=O)O)ccc(OCC2=C(c3ccc(Cl)cc3)CCOC2)c1C [compound 641]
0.124 µM | 0.11 µM | Cc1cc(CCC(=O)O)ccc1OCC1=C(c2ccc(F)cc2)CSC1 [compound 625]
0.142 µM | 0.169 µM | Cc1c(CCC(=O)O)ccc(OCC2=C(c3ccc(F)c(F)c3)CCOC2)c1C [compound 658]
